From paper PMC7248782, “Synergistic Anti Leukemia Effect of a Novel Hsp90 and a Pan Cyclin Dependent Kinase Inhibitors” (Molecules, 2020)

Molecular target: T1, Hsp90α (Homo sapiens, UniProt P07900)
T1 construct: gene HSP90AA1; recombinant human Hsp90α (SPP-776)
Assay: SPR (Biacore […], immobilized Hsp90α)
Assay type: binding

Question: For NS(=O)(=O)c1ccc(CCn2c(=S)[nH]c3ccccc3c2=O)cc1 [compound 1, 4-(2-(4-Oxo-2-thioxo-1,4-dihydroquinazolin-3(2H)-yl)ethyl)benzene sulfonamide], which Kd is on record?
Answer: 51 ± 2.9 nM
